Measurements: patent publication US20220251044A1, “CRYSTAL FORM OF HYPOXIA-INDUCIBLE FACTOR-PROLYL HYDROXYLASE INHIBITOR” (CRYSTAL PHARMACEUTICAL (SUZHOU) CO., LTD., priority 2019, published 2022)
Converted amounts (≈) assume the structure as drawn. Where two headings read alike, the source gives them in different places.

Key:
Type in all cases: physicochemical
[1] = Kinetic solubility in SGF, FaSSIF, FeSSIF and water
Source text: The parameters for kinetic solubility tests of the present disclosure are as follows:
When solubility test is used to predict the in vivo performance of a drug, it is critical to simulate in vivo conditions as closely as possible. For oral medication, Simulated Gastric Fluid (SGF), Fasted-State Simulated Intestinal Fluid (FaSSIF), Fed-State Simulated Intestinal Fluid (FeSSIF) can be used to simulate the condition in vivo and predict the effects of feeding, thus solubility in such mediums is closer to that in vivo.
20 mg of Form CSI and 20 mg of WO2014014835 Form A were suspended into 4.0 mL of SGF, 4.0 mL of FaSSIF, 4.0 mL of FeSSIF and 4.0 mL of water to get saturated solutions. After equilibrated for 1 h, 4 h, 8 h and 24 h, the concentrations (μg/mL) of Compound I of the saturated solutions were measured by UPLC.

[2] = Compressibility (tablet hardness, tensile strength); conditions: 80 mg, compressed at 10 kN
Experimental: ENERPAC manual tablet press was used for compression. 80 mg of Form CSI and WO2014014835 Form A were weighed and added into the dies of a φ6 mm round tooling, compressed at 10 kN, then stored at room temperature for 24 h until complete elastic recovery. Hardness (H) was tested with an intelligent tablet hardness tester. Diameter (D) and thickness (L) were tested with a caliper. Tensile strength of the powder was calculated with the following formula: T=2H/πDL*9.8. Under a certain force, the greater the tensile strength, the better the compressibility.

Hygroscopicity by DVS = conditions: for Weight gain under 80% RH: DVS, 25° C.
Experimental: Dynamic Vapor Sorption (DVS) was measured via an SMS (Surface Measurement Systems Ltd.) intrinsic DVS instrument. Its control software is DVS-Intrinsic control software. Typical parameters for DVS test are as follows: Temperature: 25° C. Gas and flow rate: N2, 200 mL/min dm/dt: 0.002%/min RH range: 0% RH to 95% RH DVS was applied to test the hygroscopicity of Form CSI and WO2014014835 Form A with about 10 mg of samples. The weight gains at each relative humidity were recorded in a cycle of 0-95%-0 RH. XRPD test was applied before and after DVS. Description and definition of hygroscopicity (general notice 9103 drug hygroscopicity test guidelines in 2015 edition of Chinese Pharmacopoeia, test at 25° C.±1° C., 80% RH. The definition of hygroscopicity in the 9th European Pharmacopoeia 5.11 is similar to the Chinese Pharmacopoeia.).

[3] = Intrinsic dissolution (IDR); conditions: for IDR: slope of data within 5-120 minutes
Experimental: The parameters for intrinsic dissolution tests in the present disclosure are as follows:
Approximately 100 mg of Form CSI or WO2014014835 Form A was added into the cavity of the die, and then compressed at 10 kN and held for 0.5 minute to obtain a tablet having a surface area of 0.5 cm^2. The die with the tablet still embedded was put into a dissolution apparatus to test the intrinsic dissolution. The slope (in μg/min) of the regression line was calculated according to the data within 5-120 minutes. IDR (in μg/min/cm^2) was further calculated according to the slope.

[4] = Physical stability on grinding (XRPD); conditions: ground manually for 5 min in a mortar
Experimental: Form CSI and WO2014014835 Form A was ground manually for 5 min in a mortar.

Cc1nc(C(=O)NCC(=O)O)c(O)c2ccc(Oc3ccccc3)cc12 [WO2014014835 Form A, [(4-hydroxy-1-methyl-7-phenoxy-isoquinoline-3-carbonyl)-amino]-acetic acid, reference compound]
Kinetic solubility (concentration of Compound I in saturated solution) ([1]; FaSSIF, 1 hour): 241.2 µg/mL
solubility kinetic at 4 h ([1]; FaSSIF, thermodynamic from solid, FaSSIF, 4 hours, read-out: Kinetic solubility (concentration of Compound I in saturated solution)): 569 µg/mL (≈ 1620 µM)
solubility kinetic at 8 h ([1]; FaSSIF, thermodynamic from solid, FaSSIF, 8 hours, read-out: Kinetic solubility (concentration of Compound I in saturated solution)): 567 µg/mL (≈ 1610 µM)
solubility kinetic at 24 h ([1]; FaSSIF, thermodynamic from solid, FaSSIF, 24 hours, read-out: Kinetic solubility (concentration of Compound I in saturated solution)): 570 µg/mL (≈ 1620 µM)
solubility kinetic at 1 h ([1]; FeSSIF, thermodynamic from solid, FeSSIF, 1 hour, read-out: Kinetic solubility (concentration of Compound I in saturated solution)): 146 µg/mL (≈ 415 µM)
solubility kinetic at 4 h ([1]; FeSSIF, thermodynamic from solid, FeSSIF, 4 hours, read-out: Kinetic solubility (concentration of Compound I in saturated solution)): 150 µg/mL (≈ 426 µM)
solubility kinetic at 8 h ([1]; FeSSIF, thermodynamic from solid, FeSSIF, 8 hours, read-out: Kinetic solubility (concentration of Compound I in saturated solution)): 161 µg/mL (≈ 456 µM)
solubility kinetic at 24 h ([1]; FeSSIF, thermodynamic from solid, FeSSIF, 24 hours, read-out: Kinetic solubility (concentration of Compound I in saturated solution)): 269 µg/mL (≈ 762 µM)
Kinetic solubility (concentration of Compound I in saturated solution) ([1]; SGF, 1 hour): 3.6 µg/mL
Kinetic solubility (concentration of Compound I in saturated solution) ([1]; SGF, 4 hours): 3.7 µg/mL
Kinetic solubility (concentration of Compound I in saturated solution) ([1]; SGF, 8 hours): 3.7 µg/mL
Kinetic solubility (concentration of Compound I in saturated solution) ([1]; SGF, 24 hours): 3.6 µg/mL
Kinetic solubility (concentration of Compound I in saturated solution) ([1]; water, 1 hour): 4.7 µg/mL
Kinetic solubility (concentration of Compound I in saturated solution) ([1]; water, 4 hours): 7.9 µg/mL
Kinetic solubility (concentration of Compound I in saturated solution) ([1]; water, 8 hours): 8.4 µg/mL
Kinetic solubility (concentration of Compound I in saturated solution) ([1]; water, 24 hours): 10.1 µg/mL
Tensile strength ([2]; T=2H/πDL*9.8): 0.33 MPa
Hardness ([2]; φ6 mm round tooling, after 24 h): 0.67 kgf
Weight gain under 80% RH (Hygroscopicity by DVS): 0.21%
Weight gain under 80% RH (Hygroscopicity by DVS; listed as Form A): 0.21%
Hygroscopicity class (Hygroscopicity by DVS; weight gain under 80% RH): slightly hygroscopic
Cumulative dissolution ([3]; pH4.5 PBS, 5 min, 37° C., 0.5 cm^2 tablet): 19.9 µg
Cumulative dissolution ([3]; pH4.5 PBS, 10 min): 24.1 µg
Cumulative dissolution ([3]; pH4.5 PBS, 15 min): 28.7 µg
Cumulative dissolution ([3]; pH4.5 PBS, 20 min): 34.0 µg
Cumulative dissolution ([3]; pH4.5 PBS, 25 min): 36.6 µg
Cumulative dissolution ([3]; pH4.5 PBS, 30 min): 40.2 µg
Cumulative dissolution ([3]; pH4.5 PBS, 45 min): 49.1 µg
Cumulative dissolution ([3]; pH4.5 PBS, 60 min): 59.4 µg
Cumulative dissolution ([3]; pH4.5 PBS, 90 min): 80.0 µg
Cumulative dissolution ([3]; pH4.5 PBS, 120 min): 98.2 µg
IDR ([3]; pH4.5 PBS): 1.3454 μg/min/cm^2
Cumulative dissolution ([3]; pH6.8 PBS, 5 min, 37° C., 0.5 cm^2 tablet): 439.4 µg
Cumulative dissolution ([3]; pH6.8 PBS, 10 min): 815.5 µg
Cumulative dissolution ([3]; pH6.8 PBS, 15 min): 1158.2 µg
Cumulative dissolution ([3]; pH6.8 PBS, 20 min): 1488.8 µg
Cumulative dissolution ([3]; pH6.8 PBS, 25 min): 1800.6 µg
Cumulative dissolution ([3]; pH6.8 PBS, 30 min): 2110.0 µg
Cumulative dissolution ([3]; pH6.8 PBS, 45 min): 2853.7 µg
Cumulative dissolution ([3]; pH6.8 PBS, 60 min): 3624.8 µg
Cumulative dissolution ([3]; pH6.8 PBS, 90 min): 5068.5 µg
Cumulative dissolution ([3]; pH6.8 PBS, 120 min): 6427.1 µg
IDR ([3]; pH6.8 PBS): 102.8372 μg/min/cm^2
Crystalline form and crystallinity after grinding (XRPD) [4]: decreases after grinding
Crystalline form and crystallinity after grinding (XRPD) ([4]; listed as Form A): decreases after grinding
